Experiments:
[1] = test system: Ac2-L-Lys-D-Ala-D-Lac (33); experiment: Model ligand binding, ligand of vancomycin-resistant organisms
[2] = test system: VanA vancomycin-resistant E. faecium (VRE); experiment: In vitro antimicrobial activity, VanA VRE; assay type: cell-based; conditions: comparator named in value
[3] = test system: methicillin-susceptible S. aureus (MSSA); experiment: In vitro antimicrobial activity, MSSA; assay type: cell-based
[4] = test system: methicillin-resistant S. aureus (MRSA); experiment: In vitro antimicrobial activity, MRSA; assay type: cell-based
[5] = 30 vs CBP-vancomycin, 31 vs G3,CBP-vancomycin

Substance | Ka, binding to model ligand 33 [1] | fold less effective binding of 33 than of Ac2-L-Lys-D-Ala-D-Ala [1] | antimicrobial activity against VanA VRE, result in words [2] | fold improvement of activity relative to 1 [3] | activity compared with the corresponding vancomycin derivative, in words [3, 5] | fold improvement of activity relative to 1 [4] | activity compared with the corresponding vancomycin derivative, in words [4, 5]
2e,6e-dichlorovancomycin [Compound 1] | < 470 M⁻¹ | 1000 fold | inactive | – | – | – | –
CBP-tetrachlorovancomycin [Compound 30] | – | – | comparable to CBP-vancomycin | 50 fold | indistinguishable | 50 fold | indistinguishable
vancomycin [reference compound] | – | – | inactive | – | – | – | –

Reference: article PMC10538376 (Journal of the American Chemical Society, 2023)
